Data on five compounds can be found in patent publication US9233965B2, “3,4-dihydropyrrolo[1,2-A]pyrazine-2,8(1H)-dicarboxamide derivatives, preparation thereof and therapeutic use thereof for diseases involving casein kinase 1 epsilon and/or casein kinase 1 delta” (SANOFI, priority 2010, dated 2016).

For data set [1], the system named is Mper1-luc Rat-1 (P2C4) fibroblasts. Description: Test C: circadian cell assay, mPer1-luciferase reporter period analysis. The format is cell-based. The note with it: effective concentration that induces a 1-hour prolongation of the circadian period; values or ranges from several experiments. The method, then: Test C: Experimental Protocol for Circadian Cell Assay
Mper1-luc Rat-1 (P2C4) fibroblast cultures were prepared by dividing the cultures every 3-4 days (about 10-20% of confluence) on 150 cm^2 degassed polystyrene tissue culture flasks (Falcon® #35-5001) and maintained in growth medium [EMEM (Cellgro #10-010-CV); 10% foetal bovine serum (FBS; Gibco #16000-044); and 50 I.U./mL of penicillin-streptomycin (Cellgro #30-001-Cl)] at 37° C. and under 5% CO2.
Cells obtained from Rat-1 fibroblast cultures at 30-50% of confluence as described above were co-transfected with vectors containing the selection marker for resistance to zeocin for a stable transfection and a luciferase reporter gene directed by the promoter mPer-1. After 24 to 48 hours, the cultures were divided on 96-well plates and maintained in growth medium supplemented with 50-100 μg/mL of zeocin (Invitrogen® #45-0430) for 10-14 days. The zeocin-resistant stable transfectants were evaluated for expression of the reporter by adding to the growth medium luciferin 100 μM (Promega® #E1603®) and by assaying the luciferase activity on a TopCount® scintillation counter (Packard model #C384V00). The Rat-1 cell clones expressing both zeocin resistance and luciferase activity directed by mPer1 were serum-shock-synchronized with 50% horse serum [HS (Gibco® #16050-122)] and the activity of the circadian reporter was evaluated. The P2C4 clone of fibroblasts Mper1-luc Rat-1 was selected to test the compound.
The Mper1-luc Rat-1 (P2C4) fibroblasts at 40-50% of confluence obtained according to the protocol described above were plated out onto 96-well opaque tissue culture plates (Perkin Elmer® #6005680). The cultures are maintained in growth medium supplemented with 100 μg/mL of zeocin (Invitrogen #45-0430) until they reached 100% of confluence (48-72 hours). The cultures were then synchronized with 100 μL of synchronization medium [EMEM (Cellgro #10-010-CV); 100 I.U./mL of penicillin-streptomycin (Cellgro #30-001-C1); 50% HS (Gibco #16050-122)] for 2 hours at 37° C. and under 5% CO2. After synchronization, the cultures were rinsed with 100 μL of EMEM (Cellgro #10-010-CV) for 10 minutes at room temperature. […]
The period analysis was performed either by determining the interval between the relative light emission minima over several days or by Fourier transform. […] The data were analysed by adjusting a hyperbolic curve to the data expressed as change of period (y-axis) as a function of the concentration of the test compound (x-axis) in the XLfit™ software and the EC Delta (t+1 h) was interpolated from this curve. […]

Data set [2] addresses casein kinase 1 epsilon (CK1 epsilon) (Homo sapiens (Human), UniProt P49674). Description: Test A: inhibitory activity on CK1 epsilon, casein phosphorylation assay on ATP-33P filter plate. The format is biochemical. The note with it: IC50 values or IC50 ranges (result of several experiments), ATP 10 μM final. Put shortly:
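Human CK1 epsilon (3 ng/μL final) phosphorylates dephosphorylated casein (0.2 μg/μL) with ATP-33P plus 10 μM cold ATP (KM for ATP 21 μM), 2 h at room temperature, pH 7.5 Tris buffer. TCA-precipitated protein counted by scintillation; compounds at 10 to 0.001 μM give IC50 values or % inhibition at 10 μM.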

For another data set, the target named is human CK1 delta (Homo sapiens (Human), UniProt P48730). Description: Test B: inhibitory activity on CK1 delta measured by FRET (Z'Lyte kinase assay kit). The format is biochemical. The note with it: substrate peptide SER/THR 11 2 μM, ATP 4 times the KM. The source says: Test B: Inhibitory Activity on CK1 Delta Measured by FRET
The capacity of the compounds of the invention to inhibit the phosphorylation of casein by the casein kinases 1 epsilon and delta may be evaluated using an FRET (Fluorescence Resonance Energy Transfer) fluorescence test with the aid of the “Z'Lyte™ kinase assay kit” (reference PV3670; Invitrogen Corporation™) according to the manufacturer's instructions.
The casein kinases 1 used are obtained from Invitrogen Corporation (human CK1 epsilon PV3500 and human CK1 delta PV3665).
A peptide substrate labelled at both ends with a fluorophore-donating group (coumarin) and a fluorophore-accepting group (fluorescein) constituting an FRET system is […] in the presence of ATP by casein kinase 1 epsilon or delta in the presence of increasing concentrations of compounds of the invention.
The mixture is treated with a site-specific protease that specifically cleaves the substrate peptide to form two fluorescent fragments having a large fluorescence emission ratio.
The fluorescence observed is thus related to the capacity of the products of the invention to inhibit the phosphorylation of the substrate peptide by casein kinase 1 epsilon or casein kinase 1 delta. […]
The emitted fluorescence is measured at wavelengths of 445 and 520 nm (excitation at 400 nm). […]

Values joined by “and” are separate entries in the source; they are usually repeats but may differ in a detail not shown here. Equal entries are not always repeated.

Usually IC50 stands for the concentration at which inhibition is half-maximal. High values mean a need for much substance, low ones inhibition by little substance. By melting point is commonly meant the temperature, or range, at which the solid turns liquid.

Chain of casein kinase 1 epsilon (CK1 epsilon) (P49674 whole entry): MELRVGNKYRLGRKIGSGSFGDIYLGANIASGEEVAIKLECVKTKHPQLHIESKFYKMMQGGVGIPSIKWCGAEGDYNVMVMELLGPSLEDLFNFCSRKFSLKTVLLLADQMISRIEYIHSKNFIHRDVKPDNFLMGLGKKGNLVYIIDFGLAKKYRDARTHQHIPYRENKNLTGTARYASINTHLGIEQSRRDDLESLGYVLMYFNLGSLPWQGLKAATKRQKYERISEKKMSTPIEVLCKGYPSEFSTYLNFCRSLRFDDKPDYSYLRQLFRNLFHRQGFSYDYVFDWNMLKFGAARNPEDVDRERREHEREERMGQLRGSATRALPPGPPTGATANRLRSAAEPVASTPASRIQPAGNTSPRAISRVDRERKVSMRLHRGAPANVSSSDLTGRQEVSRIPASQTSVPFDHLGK
Chain of human CK1 delta (P48730 whole entry): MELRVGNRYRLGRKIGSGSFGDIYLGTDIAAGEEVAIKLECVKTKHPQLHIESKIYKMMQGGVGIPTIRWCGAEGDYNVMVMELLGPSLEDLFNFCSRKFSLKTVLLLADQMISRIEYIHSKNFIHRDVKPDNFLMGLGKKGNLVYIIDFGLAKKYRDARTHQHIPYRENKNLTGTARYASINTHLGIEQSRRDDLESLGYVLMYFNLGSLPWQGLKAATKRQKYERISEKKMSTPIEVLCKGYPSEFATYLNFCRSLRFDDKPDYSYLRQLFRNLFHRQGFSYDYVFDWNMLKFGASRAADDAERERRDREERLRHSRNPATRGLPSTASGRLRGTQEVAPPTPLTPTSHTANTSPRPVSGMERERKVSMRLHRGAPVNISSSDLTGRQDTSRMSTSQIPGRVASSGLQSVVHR

On to `CC(C)(C)NC(=O)N1CCn2c(c(C(N)=O)c(-c3ccc4ccccc4c3)c2C2CC2)C1` [Compound 25, N^2-tert-butyl-6-cyclo-propyl-7-(naphthalen-2-yl)-3,4-dihydropyrrolo[1,2-a]pyrazine-2,8(1H)-dicarboxamide], for which the “CE Delta (t + 1 h)” value in data set [1] is 26 nM. Moreover, in data set [2], the IC50 worked out at 33 nM.

Consider `CC(C)(C)NC(=O)N1CCn2c(Cl)c(-c3ccccc3)c(C(N)=O)c2C1` [Compound 60, N^2-tert-butyl-6-chloro-7-phenyl-3,4-dihydropyrrolo[1,2-a]pyrazine-2,8(1H)-dicarboxamide], for which the melting point was 197 to 199 °C and 192 to 195 °C. For the same compound, the “CE Delta (t + 1 h)” value in data set [1] is 3 to 20 nM. In data set [2], this compound yielded an IC50 of 1 to 12 nM.

`Cc1c(-c2ccccc2)c(C(N)=O)c2n1CCN(C(=O)NC(C)(C)C)C2` [Compound 3, N^2-tert-butyl-6-methyl-7-phenyl-3,4-dihydropyrrolo[1,2-a]pyrazine-2,8(1H)-dicarboxamide]: the “CE Delta (t + 1 h)” value in data set [1] is given as 8 nM. For the same compound, in data set [2], the IC50 lay in the range of 5 to 104 nM.

On to `NC(=O)c1c(-c2ccccc2)c(C2CC2)n2c1CN(C(=O)NC13CC4CC(CC(C4)C1)C3)CC2` [Compound 54, N^2-(adamantan-1-yl)-6-cyclo-propyl-7-phenyl-3,4-dihydropyrrolo[1,2-a]pyrazine-2,8(1H)-dicarboxamide], for which the “CE Delta (t + 1 h)” value in data set [1] was 15 nM. The compound further yielded an IC50 in data set [2] of 6 nM.

Turning to `CC(C)(C)NC(=O)N1CCn2c(c(C(N)=O)c(-c3ccccc3)c2C2CC2)C1` [Compound 10, N^2-tert-butyl-6-cyclo-propyl-7-phenyl-3,4-dihydropyrrolo[1,2-a]pyrazine-2,8(1H)-dicarboxamide], the results for the IC50 (at human CK1 delta; in data set [2]) were 31 nM and 15 to 77 nM, respectively.
